Data from patent US20090060851A1, “USE OF IDEBENONE FOR THE PREPARATION OF A TOPICALLY-APPLIED DEPIGMENTATION COMPOSITION AND CORRESPONDING COMPOSITION” (priority 2005, published 2009).

How the values were obtained:
skin of nude adult mice = assay: Dermal capillary vessel diameters, mouse skin; assay type: in vivo; details: topically applied
Protocol: Creams containing 5% and 2.5% w/w idebenone (IDB) in a neutral phase were prepared. Said creams and a cream having an identical formulation but without idebenone were applied on nude adult mice with 3 months of age. The cream with idebenone was applied on the right half of the body of the animals and the control cream on the left half according to the scheme detailed below. The animals were sacrificed 1, 2, 3 or 4 hours after applying the cream (p.a.). • Batch A: animal treated with 5% IDB (1 hour p.a.) • Batch B: animal treated with 2.5% IDB (1 hour p.a.) • Batch C: animal treated with 5% IDB (2 hours p.a.) • Batch D: animal treated with 2.5% IDB (2 hours p.a.) • Batch E: animal treated with 5% IDB (3 hours p.a.) • Batch F: animal treated with 2.5% IDB (3 hours p.a.) • Batch G: animal treated with 5% IDB (4 hours p.a.) • Batch H: animal treated with 2.5% IDB (4 hours p.a.)
Morphological and morphometric studies: Thickness of the epidermis, the horny layer, the papillary dermis and reticular dermis was measured in at least 10 different points, the result being expressed as the average of the 10 measurements. Capillary vessel diameter was also measured in at least 10 points, expressing them by means of their average. The measurements were carried out using a Quantimet 500+ (Leica) image processing equipment. […]

SK-MEL-28 = assay: Melanin content determination (OD400) in SK-MEL cells; assay type: cell-based, human
Protocol: In vitro determinations were performed following the method devised by Dooley et al. (Skin Pharmacol. 1994; 7:188-200) in order to evaluate the capacity of idebenone to inhibit melanogenesis, according to the process described below:
Cells: The study was carried out using a cell line derived from human melanoma, provided by ABAC (Asociación Banco Argentino de Células—Cell Bank of Argentina), with melanin synthesis capability (SK-MEL-28, ATCC origin). The cells were grown in plastic culture bottles or in 24-well plastic dishes in a modified Eagle medium (DMEM) supplemented with 10% fetal bovine serum (FBS) and were maintained at 37° C. in a 5% CO2 atmosphere.
Study of in vitro compounds: SK-MEL cells detached with trypsin were seeded on plastic 24-well dishes (density of 1×10^5 cells per well) and incubated for 24 hours in modified Eagle medium (DMEM) supplemented with 10% fetal bovine serum (FBS) prior to treating with the compound to be evaluated. After 24 hours have lapsed, the medium was replaced with 990 μl of fresh medium. 10 μl of sterile vehicle (50% propylene glycol, 30% ethanol and 20% distilled water) containing different concentrations of the compounds to be evaluated were added to this fresh medium.
Decimal dilutions of each compound in the sterile vehicle were prepared in order to obtain final concentrations of the compound to be studied ranging between 1.000 and 0.01 μg/ml. […]
[…] The cells were thus continuously exposed to the compounds under study for the 5 days the culture lasted. All the concentrations of the compounds were studied in triplicate, comparing the mean of the 3 wells treated with the compounds with those treated with the vehicle alone.
Melanin content determination: The SK-MEL cell melanin content was determined after stirring the culture medium and washing the cells with PBS. The cells were then lysated by means of adding 1 ml of 1N NaOH to each well and repeated manual pipetting. The raw cell extract was analyzed using a spectrophotometer at 400 and 475 nm to determine the melanin and dopaquinone content, respectively. The results were expressed as a percentage of the cell cultures treated with the vehicle.

[1] = Example 9 (similar to Example 6), dilution −2
[2] = Example 9 (similar to Example 6), dilution −3
[3] = Example 9 (similar to Example 6), dilution −4
[4] = Example 9 (similar to Example 6), dilution −5
[5] = Example 9 (similar to Example 6), dilution −6
[6] = Example 9 (similar to Example 6), dilution −7
[7] = Example 9 (similar to Example 6), dilution −8
[8] = dilution −1, treated daily 3 days, assayed day 5
[9] = dilution −2, treated 1 day, evaluated third day
[10] = dilution −2, treated daily 3 days, assayed day 5
[11] = dilution −3, treated 1 day, evaluated third day
[12] = dilution −3, treated daily 3 days, assayed day 5
[13] = dilution −4, treated 1 day, evaluated third day
[14] = dilution −4, treated 2 days, evaluated fourth day
[15] = dilution −4, treated daily 3 days, assayed day 5
[16] = dilution −5, treated 1 day, evaluated third day
[17] = dilution −5, treated 2 days, evaluated fourth day
[18] = dilution −5, treated daily 3 days, assayed day 5
[19] = dilution −6, treated 1 day, evaluated third day
[20] = dilution −6, treated 2 days, evaluated fourth day

## COC1=C(OC)C(=O)C(CCCCCCCCCCO)=C(C)C1=O [idebenone, 6-(10-hydroxydecyl)-2,3-dimethoxy-5-methyl-1,4-benzoquinone]
Skin of nude adult mice
  Effect on microcirculation vascular diameters: does not substantially modify microcirculation vascular diameters
SK-MEL-28; [1]
  OD400 (melanin): 0.01166
  OD400 Percentage (melanin): 71.40%
SK-MEL-28; [2]
  OD400 (melanin): 0.01566
  OD400 Percentage (melanin): 95.89%
SK-MEL-28; [3]
  OD400 (melanin): 0.01533
  OD400 Percentage (melanin): 93.87%
SK-MEL-28; [4]
  OD400 (melanin): 0.01466
  OD400 Percentage (melanin): 89.77%
SK-MEL-28; [5]
  OD400 (melanin): 0.009
  OD400 Percentage (melanin): 55.11%
SK-MEL-28; [6]
  OD400 (melanin): 0.01166
  OD400 Percentage (melanin): 71.40%
SK-MEL-28; [7]
  OD400 (melanin): 0.01166
  OD400 Percentage (melanin): 71.40%
SK-MEL-28; SK-MEL-28, Example 5
  Melanin synthesis inhibition: inhibits melanin synthesis in a dose-dependent manner
SK-MEL-28; [8]
  OD400 (melanin): 0.0156
  OD400 expressed as percentage of control (melanin): 28%
SK-MEL-28; [9]
  OD400 (melanin): 0.0040
  OD400 Percentage (melanin): 14.65%
SK-MEL-28; [10]
  OD400 (melanin): 0.0140
  OD400 expressed as percentage of control (melanin): 40%
SK-MEL-28; [11]
  OD400 (melanin): 0.0133
  OD400 Percentage (melanin): 48.72%
SK-MEL-28; [12]
  OD400 (melanin): 0.0123
  OD400 expressed as percentage of control (melanin): 52%
SK-MEL-28; [13]
  OD400 (melanin): 0.0243
  OD400 Percentage (melanin): 89.01%
SK-MEL-28; [14]
  OD400 (melanin): 0.0613
  OD400 Percentage (melanin): 112.89%
SK-MEL-28; [15]
  OD400 (melanin): 0.0096
  OD400 expressed as percentage of control (melanin): 59%
SK-MEL-28; dilution −4, treated for 3 days, evaluated fifth day
  OD400 (melanin): 0.0686
SK-MEL-28; dilution −4, treated for 5 days (heading: 3 days), evaluated fifth day
  OD400 Percentage (melanin): 77.69%
SK-MEL-28; [16]
  OD400 (melanin): 0.0343
  OD400 Percentage (melanin): 125.64%
SK-MEL-28; [17]
  OD400 (melanin): 0.0626
  OD400 Percentage (melanin): 115.28%
SK-MEL-28; [18]
  OD400 (melanin): 0.0066
  OD400 expressed as percentage of control (melanin): 66%
SK-MEL-28; dilution −5, treated for 3 days, evaluated fifth day
  OD400 (melanin): 0.0742
SK-MEL-28; dilution −5, treated for 5 days (heading: 3 days), evaluated fifth day
  OD400 Percentage (melanin): 84.03%
SK-MEL-28; [19]
  OD400 (melanin): 0.0313
  OD400 Percentage (melanin): 114.65%
SK-MEL-28; [20]
  OD400 (melanin): 0.0396
  OD400 Percentage (melanin): 72.92%
SK-MEL-28; dilution −6, treated for 3 days, evaluated fifth day
  OD400 (melanin): 0.0801
SK-MEL-28; dilution −6, treated for 5 days (heading: 3 days), evaluated fifth day
  OD400 Percentage (melanin): 90.71%
SK-MEL-28; −2 to −8 dilutions
  Melanogenesis inhibition at high dilutions: preserves its ability to inhibit melanogenesis
